Measured values published in US9018257B2, “5-aminolevulinic acid derivatives, methods for their preparation and uses thereof” (Bar Ilan University, priority 2011, dated 2015).

Columns and labels:
[1] = system: α-globin; assay: α-globin mRNA, quantitative real-time PCR, K562 cells; assay type: cell-based, human; details: 0.5 mM, 72 hours (peak)
Method: Globin RNAs are quantified by quantitative real time polymerase chain reaction, (qRT-PCR) using SYBR I Green (Applied Biosystems). The cDNA is generated from cell culture or tissues using a PCR purification kit (Qiagen, Valencia, Calif., USA). The qRT-PCR is performed in triplicate and is repeated in at least three separate experiments.
(§1) Total RNA (1 μg) was primed by oligo dT and reverse-transcribed by Verso cDNA kit according to the manufacturer's protocol (Thermo Scientific, West Palm Beach, USA). Quantitative PCR was done on a Step One Plus thermocycler (Applied Byosystems, Van Allen Way, CA, USA). The comparative threshold method was used to calculate the relative gene expression. Values were normalized against glyceraldehyde 3-phosphate dehydrogenase (GAPDH) for the different genes. Real time PCR was performed with Syber Green (Kapa Biosystems, Woburn, Mass., USA) using the following primers: […]
(§2) K562 cells are grown as described above and incubated with 0.5 mM of various compounds for 96 hours. Total heme content in the cells is evaluated. In addition, a globin mRNA and protein expression levels are evaluated using Quantitative real-time PCR and Western blot analysis, respectively.

[2] = system: PBGD mRNA; assay: PBGD mRNA, quantitative real-time PCR, K562 cells; assay type: cell-based, human; details: 0.5 mM, after 48-96 hours
Method: as §1
Relative quantification of gene expression was determined by the comparative threshold method (ÄCT), as described previously (Livak K J, Schmittgen T D). Analysis of relative gene expression data using real-time quantitative PCR and the 2(−Delta Delta C(T)) Method. Expression of the Gapdh mRNA in each individual sample was used to normalize the dataset.
(§3) K562 cells are grown as described above and incubated with 0.5 mM of various compounds for 96 hours. Activity of PBGD is evaluated as described above. Expression level of the PBGD protein is evaluated using Western blot analysis (as detailed above). Expression level of PBGD mRNA are evaluated using Quantitative real-time PCR.

[3] = system: K562 cells; assay: MTT viability / proliferation of K562 cells; assay type: cell-based, human; details: 96 hours
Method: Cells are grown in 24 wells plate in a volume of 0.5 mL and treated as indicated for 96 hours. Then, 77 μL of 5 mg/mL MTT (3-[4,5-dimethylthiazol-2-yl]-2,5-diphenyltetrazolium bromide, (Sigma, Israel)) is added to each well for 2 hours. Afterwards, 400 μL of DMF solution (100 gr SDS dissolved in 250 mL dd H2O with 250 mL of DMF) is added for 4 hours. Absorbance is then measured in 570 nm using a Tecan spectrophotometer (NeoTec, Canada).
To evaluate the effect of various tested compounds on cell proliferation, K562 cells were treated for 96 hours and their viability was evaluated by MTT as detailed above.

[4] = system: K562 cells; assay: PpIX synthesis in K562 cells (FACS fluorescence); assay type: cell-based, human; details: 0.5 mM, 96 hours, vs 5-ALA alone, BA alone or their mixture
Method: Following treatment, cells are harvested, collected by centrifugation, washed twice and resuspended in 0.5 mL with sterile PBS. PpIX fluorescence is measured in 10,000 cells per sample using a FACS (Becton-Dickinson, CA, USA) with an excitation wavelength of 488 nm and emission wavelength>670 nm. Images of the stained cells are examined using a fluorescent microscope (IX70) (Olympus Tokyo, Japan) using an excitation filter of 330-385 nm and barrier filter at 420 nm […] PpIX fluorescence is measured at the FL-3 channel of FACS Calibur. Additionally, pictures of cells are taken using a fluorescent microscope-Nikon TE200-E, to show PpIX fluorescence.

[5] = system: K562 cells; assay: Intracellular total heme assay in K562 cells; assay type: cell-based, human; details: 0.5 mM, 96 hours, vs ALA alone, BA alone or mixture
Method: The method for quantitative determination of total heme in cell lysates is performed using hemin as a standard. The “total heme” or “endogenous heme” measured in these assays includes bound and free heme. Following treatments, 100 or 500 μg of cell lysate was added to 100 μL orthotolidine reagent (0.25 gr orthotolidine (Sigma-Aldrich, Israel) dissolved in 80 mL glacial acetic acid (Sigma-Aldrich, Israel) and 10 mL dd H2O). Heme is oxidized to a green product by adding 100 μL of 1.2% H2O2 to the mixture for 10 minutes incubation in the dark. The first oxidation product was further oxidized to a yellow product by adding 0.5 mL of a 1:9 v/v solution of diluted acetic acid. Absorbance of the second product was read at 430 nm using a spectrophotometer (Tecan Trading AG, Switzerland).
as §2

[6] = system: porphobilinogen deaminase (PBGD); assay: PBGD enzymatic activity assay in K562 cells; assay type: cell-based, human; details: 0.5 mM, 96 hours, vs ALA alone, BA alone or mixture
Method: K562 cells (1×10^6) are treated for 96 hours. PBGD activity is assayed as previously described by determining the fluorescence of uroporphyrin formed by the light-induced oxidation of uroporphyrinogen, which is the immediate product of the enzymatic deamination of 4 porphobilinogen molecules. In short, cells are harvested following treatment, and washed twice with PBS. After centrifugation, the pellet was resuspended in 200 μL 50 mM Tris buffer (pH 8.2) with 0.2% Triton. The cells are homogenized on ice and protein levels are quantified using the Bradford method. 400 μg protein was taken out in duplicates for incubation in 300 μL of 50 mM Tris buffer (pH 8.2) containing 0.2% Triton, with final concentration of 85 μM PBG (Sigma, Israel) for 1 hour at 37° C. The reaction is stopped by addition of 1.2 mL 15.6% TCA. […] The samples fluorescence is read using a Synergy spectrofluorometer (BioTek Instruments, VT, USA) with an excitation wavelength of 404 nm, and an emission wavelength of 595 nm. PBGD specific activity is calculated as activity percentage of control.
as §3

[7] = system: Glycophorin A; assay: Glycophorin A expression by flow cytometry (erythroblast differentiation); assay type: cell-based, human; details: K562 cells, 0.5 mM, 96 hours; compared to any other treatment
Method: K562 cells are fixed and stained with primary antibodies anti-αHb or anti-Glycophorin A and are tagged using the compatible secondary antibodies-Alexa 488-conjugated anti-rabbit antibody donkey anti-goat (Invitrogen, Oregon, USA) as recommended by Cell Signaling (MA, USA). Fluorescence is measured in 10,000 cells using FACS with an excitation wavelength of 488 nm and emission wavelength of 530 nm. K562 cells were suspended in paraformaldehyde 4% for 10 min at 37° C., followed by incubation with chilled methanol (final concentration 90%) for 30 min on ice. Cells were washed twice with PBS−/− and blocked with BSA 0.5% in PBS−/− for 10 min at room temperature. […] The cells were washed again with PBS−/− and fluorescence was measured in 10,000 cells per sample using a FACS (Becton-Dickinson, San Jose, Calif., USA) with an excitation wavelength of 488 nm and emission wavelength 530 nm.
K562 cells are grown as described above and incubated with 0.5 mM of various compounds for 96 hours. […] Glycophorin A content is measured using immunostaining analyzed by flow cytometry, as detailed above. […]

[8] = system: PBGD; assay: PBGD protein expression, Western blot, K562 cells; assay type: cell-based, human; details: 0.5 mM, 96 hours, compared to untreated cells or cells treated with ALA
Method: (§4) Proteins are quantified and equalized using the Bradford assay (Bio-Rad, CA, USA) and resolved on a 12% polyacrylamide gel. Afterwards, proteins are transferred from the gel onto nitrocellulose membranes (Bio-Rad, CA, USA) using a semi-dry transfer apparatus (Bio-Rad, CA, USA). After blocking the membranes with phosphate-buffered saline+0.2% Tween-20 (PBST) (Sigma-Aldrich, Israel) and 5% skim-milk (BD-Diagnostic Systems, MD, USA), membranes are incubated with primary rabbit anti-human PBGD antibody (a generous gift from flemeBiotech, Sweden), or with rabbit anti-α-Hb (H80) (Santa Cruz Biotechnology, CA, USA), or with HRP-conjugated mouse anti-β-actin antibody (C4) (Santa Cruz Biotechnology, CA, USA) diluted in blocking solution for 1 h in room temperature or for overnight in 4° c., washed with PBST and incubated with secondary antibodies diluted in blocking solution. Immuno-reactive proteins were visualized with enhanced chemiluminiscence detection EZ-ECL kit (Biological Industries, Israel) used as recommended by the manufacturer.
as §3

[9] = system: Ferrochelatase; assay: Ferrochelatase protein expression in K562 cells; assay type: cell-based, human; details: vs ALA, BA or their mixture
Method: K562 cells are fixed and stained with primary antibodies anti-αHb or anti-Glycophorin A and are tagged using the compatible secondary antibodies-Alexa 488-conjugated anti-rabbit antibody donkey anti-goat (Invitrogen, Oregon, USA) as recommended by Cell Signaling (MA, USA). Fluorescence is measured in 10,000 cells using FACS with an excitation wavelength of 488 nm and emission wavelength of 530 nm. K562 cells were suspended in paraformaldehyde 4% for 10 min at 37° C., followed by incubation with chilled methanol (final concentration 90%) for 30 min on ice. Cells were washed twice with PBS−/− and blocked with BSA 0.5% in PBS−/− for 10 min at room temperature. Afterwards, the cells were incubated in 50 μL of the primary antibody goat polyclonal Ferrochelatase (Santa Cruz Biotechnology, Santa Cruz, Calif., USA) or goat polyclonal glycophorin A (Santa Cruz Biotechnology, Santa Cruz, Calif., USA) (1:50 in BSA 0.5%) or anti-a Hb for 30 min at room temperature, washed once with PBS−/−, and incubated with a fluorescent donkey anti-goat IgG secondary antibody (1:1000) (Invitrogen, Carlsbad, Calif., USA) for 30 min at room temperature. The cells were washed again with PBS−/− and fluorescence was measured in 10,000 cells per sample using a FACS (Becton-Dickinson, San Jose, Calif., USA) with an excitation wavelength of 488 nm and emission wavelength 530 nm. […]

[10] = system: Balb-c mice; assay: Doxorubicin induced anemia in mice, blood hemoglobin; assay type: in vivo; details: male Balb-c mice, Dox 4 mg/kg ip once a week + 50 mg/kg ip compound, day 19; vs Dox alone
Method: In an additional setting 8 weeks old male Balb-c mice were divided to two groups, Group 1 received 4 mg/kg ip dose of Doxorubicin (Dox) once a week and Group 2 received the same Doxorubicin treatment and in addition the mice were treated with 50 mg/kg ip dose of the tested compound three times a week. Termination was done on day 19, blood samples were drawn by retro-orbital venipuncture under anesthesia. Hemoglobin levels in heparinized whole blood were determined using Drabkints reagent and standard hemoglobin obtained from Sigma-Aldrich and prepared and stored as instructed by the manufacturer.
In vivo 8 weeks old male Balb-c mice were divided to two groups, Group 1 received 4 mg/kg ip dose of doxorubicin (Dox) once a week and Group 2 received the same Dox treatment and in addition the mice were treated with 50 mg/kg ip dose of compound of formula (I-a) (in this example, 1-(butyryloxy)ethyl-5-amino-4-oxopentanoate, (AlaAcBu)) three times a week. The experiment was terminated on day 19, blood samples were drawn by retro-orbital venipuncture under anesthesia. Hemoglobin levels in heparinized whole blood were determined using Drabkin's reagent and standard hemoglobin obtained from Sigma-Aldrich and prepared and stored as instructed by the manufacturer.

[11] = system: α-globin; assay: α-globin protein expression, Western blot, K562 cells; assay type: cell-based, human; details: 0.5 mM, 96 hours, compared to any other treatment
Method: as §4, §2

[12] = system: K562 cells; assay: TEM ultrastructure of K562 cells (cellular maturation); assay type: cell-based, human; details: 96 hours
Method: Analysis is performed on bone-marrow, spleen and liver, processed as described in [17]. Briefly, cells are treated for 96 hours (hrs), harvested and fixed with Karnovsky fixative. The samples are washed in 0.1 M cacodylate buffer and fixed with 1% OsO4 in 0.1 M sodium cacodylate buffer for 1 hour (h). The samples are then dehydrated in graded ethanol solutions and propylene oxide and embedded in agar mix. Thin sections are cut, stained with uranyl acetate and lead citrate, and observed under a transmission electron microscope.
To evaluate morphologic changes associated with the effect of compound of formula (I-a) (in this example, AlaAcBu) and the ALA+HDACI (in this example, BA) mixture on K562 cells, the cells were examined by immunohystochemical experiments, as shown in FIG. 7.

[13] = system: HDAC class I and II; assay: Cellular HDAC activity (Fluor de Lys) in U-251 cells; assay type: cell-based, human; details: 2 hours with substrate, read-out: IC50 of HDAC inhibition
Method: Inhibition of the activity HDAC class I and II in the cells is performed with the fluorescent kit (AK-503, Biomol, USA). The cells are seeded (10×10^3 cells/well) in 96-well plates (in quadruplicates) in growth medium for 24 hours and then treated. Incubation with the HDAC substrate (Fluor de Lys™) is for 2 hours. The reaction is terminated by the addition of Fluor de Lys™ developer and 2 μM trichostatin A (TSA). The % of inhibition is calculated from the ratio of the fluorescence (measured at 355 nm excitation and 460 nm emission) in the treated compared to the untreated control culture.
In order to test the direct effect of octanoic acid, as well as co-drugs of formula (I-a) (which comprise octanoic acid as the carboxylic acid), on the activity of cellular HDAC, the activity of HDAC is evaluated by incubating U-251 cells for 2 hours with the cell-permeable HDAC fluorometric substrate for HDAC class I and II (Fluor de Lys™), as detailed above.

Q: How did the “α-globin mRNA expression, fold elevation” value [1] turn out when `NCC(=O)CCC(=O)O` [ALA, 5-aminolevulinic acid] was run?
A: 2.2 fold

Q: What about the “PBGD mRNA level” value [2] of the same compound?
A: significantly decreased

Q: What about the “cell viability (MTT, mitochondria activity % of control)” value [3] of the same compound?
A: did not affect cell viability

Q: How did the “intensity of the fluorescence generated by PpIX” value [4] turn out when `CCCC(=O)OC(C)OC(=O)CCC(=O)CN` (stereo not drawn) [AlaAcBu, 1-(butyryloxy)ethyl 5-amino-4-oxopentanoate] was run?
A: substantially higher

Q: And the “fold increase in total heme content” value [5]?
A: higher

Q: What about the “α-globin mRNA expression, fold elevation” value [1] of the same compound?
A: 11.3 fold

Q: What about the “relative activity of PGBD compared to control” value [6] of the same compound?
A: higher

Q: What about the “relative expression of Glycophorin A (percentage of control)” value [7] of the same compound?
A: highest increase

Q: And the “expression levels of PGBD (protein, Western blot)” value [8]?
A: increased similarly

Q: And the Ferrochelatase protein expression [9]?
A: significantly higher level

Q: And the “hemoglobin level in blood” value [10]?
A: ameliorate the Dox-induced suppression of erythropoiesis

Q: And the “protein expression levels of α-globin” value [11]?
A: markedly elevated

Q: And the “inhibition of cell proliferation (MTT)” value [3]?
A: 33%

Q: And the “ultrastructural changes identified by TEM” value [12]?
A: chromatin condensation, cytosolic hemoglobinization

Q: Which results are given for `CCCC(=O)O` [BA, butyric acid]?
A: α-globin mRNA expression, fold elevation [1]: 9.1 fold; expression levels of PGBD (protein, Western blot) [8]: increased similarly; cell viability (MTT, mitochondria activity % of control) [3]: even increased it

Q: Which IC50 [13] does the source give for `CCCCCCCC(=O)O` [octanoic acid] here?
A: 500 µM
